# Reference: US9024021B2, “Diarylacetylene hydrazide containing tyrosine kinase inhibitors” (Sun Pharma Advanced Research Company Ltd., priority 2011, dated 2015)
# Key:
# [1] = target: T1, Lyn (human) (Homo sapiens, UniProt P07948); test: Lyn kinase inhibition (in vitro); type: biochemical; settings: read-out: % Inhibition at 100 nM Lyn
# T1 construct: purchased Millipore Pharma Services (contract assay, UK pharmacology laboratory)
# Experimental: (§1) The kinase assays were performed by Millipore Pharma Services at their UK pharmacology laboratory.
# In a final reaction volume of 25 μL, Lyn (human) (5-10 mU) is incubated with 50 mM Tris pH 7.5, 0.1 mM EGTA, 0.1 mM Na3VO4, 0.1% β-mercaptoethanol, 0.1 mg/ml poly(Glu, tyr) 4:1, 10 mM Mg(OAc)2 and [γ-^33P-ATP] [specific activity approx. 500 cpm/pmol, concentration as required). The reaction is initiated by the addition of the MgATP mix. After incubation for 40 minutes at room temperature, the reaction is stopped by the addition of 5 μL of a 3% phosphoric acid solution. 10 μL of the reaction is then spotted onto a filtermat A and washed three times for 5 minutes in 75 mM phosphoric acid and once in methanol prior to drying and scintillation counting.
# (§2) Within each kinase assay, percent of control values were calculated for each test compound raw data point based on mean minimum (0%) and maximum (100%) controls (n=4 per control) for that kinase (sample−mean minimum/mean maximum−mean minimum×100%). Percent inhibition was calculated from these values (100−mean percent of control).
# [2] = target: T2, Abl (M351T) (human) (Homo sapiens, UniProt P00519, M351T); test: Mutated Abl kinase inhibition (in vitro), M351T; type: biochemical; settings: 100 nM
# T2 construct: purchased Millipore Pharma Services (contract assay, UK pharmacology laboratory)
# Experimental: as §1
# (§3) In a final reaction volume of 25 μL, Abl (human) (5-10 mU) is incubated with 8 mM MOPS pH7.0, 0.2 mM EDTA, 50 μM […], 10 mM Mg(OAc)2 and [γ-^33P-ATP] [specific activity approx. 500 cpm/pmol, concentration as required). The reaction is initiated by the addition of the MgATP mix. After incubation for 40 minutes at room temperature, the reaction is stopped by the addition of 5 μL of a 3% phosphoric acid solution. 10 μL of the reaction is then spotted onto a P30 filtermat and washed three times for 5 minutes in 75 mM phosphoric acid and once in methanol prior to drying and scintillation counting.
# (§4) The procedure remains exactly the same as described earlier for Abl kinase, the Abl (human) kinase being replaced by mutated Abl (Q252H) (human), Abl (Y253F) (human), Abl (T315I) (human), Abl (M351T) (human) and Abl (H396P) (human) kinases.
# as §2
# [3] = target: T3, Abl (Y253F) (human) (Homo sapiens, UniProt P00519, Y253F); test: Mutated Abl kinase inhibition (in vitro), Y253F; type: biochemical; settings: 100 nM
# T3 construct: purchased Millipore Pharma Services (contract assay, UK pharmacology laboratory)
# Experimental: as §1, §3, §4, §2
# [4] = target: T4, Abl (Q252H) (human) (Homo sapiens, UniProt P00519, Q252H); test: Mutated Abl kinase inhibition (in vitro), Q252H; type: biochemical; settings: 100 nM
# T4 construct: purchased Millipore Pharma Services (contract assay, UK pharmacology laboratory)
# Experimental: as §1, §3, §4, §2
# [5] = target: T5, Abl (H396P) (human) (Homo sapiens, UniProt P00519, H396P); test: Mutated Abl kinase inhibition (in vitro), H396P; type: biochemical; settings: 100 nM
# T5 construct: purchased Millipore Pharma Services (contract assay, UK pharmacology laboratory)
# Experimental: as §1, §3, §4, §2
# [6] = target: T6, Lck (human) (Homo sapiens, UniProt P06239); test: Lck kinase inhibition (in vitro); type: biochemical; settings: read-out: % Inhibition at 100 nM Lck
# T6 construct: purchased Millipore Pharma Services (contract assay, UK pharmacology laboratory)
# T6 sequence (P06239 whole entry): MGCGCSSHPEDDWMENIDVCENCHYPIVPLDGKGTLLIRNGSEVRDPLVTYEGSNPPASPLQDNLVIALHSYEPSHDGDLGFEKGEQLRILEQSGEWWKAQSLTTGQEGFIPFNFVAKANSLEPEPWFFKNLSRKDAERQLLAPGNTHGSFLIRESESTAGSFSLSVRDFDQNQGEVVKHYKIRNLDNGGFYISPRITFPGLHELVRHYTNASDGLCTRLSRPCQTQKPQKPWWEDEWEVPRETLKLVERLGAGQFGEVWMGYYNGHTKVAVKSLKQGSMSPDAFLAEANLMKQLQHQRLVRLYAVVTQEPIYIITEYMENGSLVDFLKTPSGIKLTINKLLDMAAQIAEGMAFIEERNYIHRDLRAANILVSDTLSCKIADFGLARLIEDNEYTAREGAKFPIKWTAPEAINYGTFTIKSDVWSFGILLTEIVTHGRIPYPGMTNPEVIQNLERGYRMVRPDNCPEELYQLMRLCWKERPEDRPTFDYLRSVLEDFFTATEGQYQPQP
# Experimental: as §1
# In a final reaction volume of 25 μL, Lck (human) (5-10 mU) is incubated with 50 mM Tris pH 7.5, 0.1 mM EGTA, 0.1 mM Na3VO4, 250 μM […] [Cdc2 peptide), 10 mM Mg(OAc)2 and [γ-^33P-ATP] [specific activity approx. 500 cpm/pmol, concentration as required). The reaction is initiated by the addition of the MgATP mix. After incubation for 40 minutes at room temperature, the reaction is stopped by the addition of 5 μL of a 3% phosphoric acid solution. 10 μL of the reaction is then spotted onto a P30 filtermat and washed three times for 5 minutes in 75 mM phosphoric acid and once in methanol prior to drying and scintillation counting.
# as §2
# [7] = target: T7, Abl (T315I) (human) (Homo sapiens, UniProt P00519, T315I); test: Abl-T315I kinase inhibition (in vitro); type: biochemical; settings: for inhibition at 0.1 µM: 100 nM; for inhibition at 1 µM: 1000 nM
# T7 construct: purchased Millipore Pharma Services (contract assay, UK pharmacology laboratory)
# Experimental: as §1
# [specific activity approx. 500 cpm/pmol, concentration as required). The reaction is initiated by the addition of the MgATP mix. After incubation for 40 minutes at room temperature, the reaction is stopped by the addition of 5 μL of a 3% phosphoric acid solution. 10 μL of the reaction is then spotted onto a P30 filtermat and washed three times for 5 minutes in 75 mM phosphoric acid and once in methanol prior to drying and scintillation counting.
# as §2
# [8] = system: K562 cells; test: In-vitro cell proliferation assay (MTT), K562 cells; type: cell-based; settings: for inhibition at 0.01 µM / inhibition at 0.1 µM: Homo sapiens
# Experimental: In-Vitro Cell Proliferation Assay
# K562/U937 cells (2×10^4 per well) were incubated with the test compounds/vehicle in a total volume of 200 μL of media at 37° C. with 5% CO2. […] The cells were incubated overnight at 37° C. with 5% CO2. On Day 5 the optical density was measured at 570 nm with 630 nm as reference wavelength. The optical density in the vehicle treated wells was compared with that of the test compound treated wells.
# T1 sequence (P07948 whole entry): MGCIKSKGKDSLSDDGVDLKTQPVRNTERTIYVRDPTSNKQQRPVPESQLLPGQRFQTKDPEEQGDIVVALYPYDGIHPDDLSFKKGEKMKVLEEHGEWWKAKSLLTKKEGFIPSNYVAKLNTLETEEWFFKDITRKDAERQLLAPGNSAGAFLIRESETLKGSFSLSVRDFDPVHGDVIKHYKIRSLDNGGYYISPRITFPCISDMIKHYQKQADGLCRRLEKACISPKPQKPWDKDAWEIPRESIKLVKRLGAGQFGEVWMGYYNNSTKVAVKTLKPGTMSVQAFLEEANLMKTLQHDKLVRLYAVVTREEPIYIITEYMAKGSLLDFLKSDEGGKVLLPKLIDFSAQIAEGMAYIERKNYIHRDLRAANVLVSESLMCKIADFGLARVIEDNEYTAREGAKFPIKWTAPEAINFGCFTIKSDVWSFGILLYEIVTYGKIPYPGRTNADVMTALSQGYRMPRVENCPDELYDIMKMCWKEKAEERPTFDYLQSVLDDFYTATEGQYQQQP
SMILES,inhibition at 0.1 µM [1] [%],inhibition at 0.1 µM [2] [%],inhibition at 0.1 µM [3] [%],inhibition at 0.1 µM [4] [%],inhibition at 0.1 µM [5] [%],inhibition at 0.1 µM [6] [%],inhibition at 0.003 µM ([7]; 3 nM) [%],inhibition at 0.03 µM ([7]; 30 nM) [%],inhibition at 0.1 µM [7] [%],inhibition at 1 µM [7] [%],% Inhibition of Abl-T315I kinase ([7]; 3 nM) [%],% Inhibition of Abl-T315I kinase ([7]; 30 nM) [%],% Inhibition of cell proliferation in K562 cells ([8]; 10 nM) [%],% Inhibition of cell proliferation in K562 cells ([8]; 100 nM) [%],inhibition at 0.01 µM ([8]; 10 nM) [%],inhibition at 0.1 µM ([8]; 100 nM) [%]
"Cc1ccc(C(=O)NNC(=O)c2c(C)cccc2Cl)cc1C#Cc1cnc2ccccc2c1 [I.2, N′-(2-Chloro-6-methylbenzoyl)-4-methyl-3-[2-(3-quinolyl)ethynyl]benzohydrazide]",97,100,101,100,99,84,–,–,–,–,–,–,–,–,–,–
"Cc1ccc(C(=O)NNC(=O)c2c(Cl)cccc2Cl)cc1C#Cc1cnc2ccccc2c1 [I.5, N′-(2,6-Dichlorobenzoyl)-4-methy1-3-[2-(3-quinolyl)ethynyl]benzohydrazide]",–,–,–,–,–,–,–,–,–,–,30.0,83.0,99.8,99.9,–,–
"Cc1ccc(C(=O)NNC(=O)c2c(C)cccc2F)cc1C#Cc1cnc2ccccc2c1 [I.14, N′-(2-Fluoro-6-methylbenzoyl)-4-methyl-3-[2-(3-quinolyl)ethynyl]benzohydrazide]",–,–,–,–,–,–,1,60,–,–,–,–,–,–,68.5,71.7
"Cc1ccc(C(=O)NNC(=O)c2c(C)cccc2Cl)cc1C#Cc1cnc2ccc(Cl)cc2n1 [I.26, N′-(2-Chloro-6-methylbenzoyl)-3-[2-(7-chloroquinoxalin-2-yl)ethynyl]-4-methylbenzohydrazide]",–,–,–,–,–,–,3,41,–,–,–,–,–,–,71.8,78.2
"Cc1ccc(C(=O)NNC(=O)c2c(C)cccc2Cl)cc1C#Cc1cnc2cccnn12 [I.16, N′-(2-Chloro-6-methylbenzoyl)-3-[2-(imidazo[1,2-b]pyridazin-3-yl)ethynyl]-4-methylbenzohydrazide]",74,100,98,98,99,65,–,–,70,93,–,–,–,–,104,102

# Second part, led by results:
inhibition at 0.1 µM [1] [%],inhibition at 0.1 µM [2] [%],inhibition at 0.1 µM [3] [%],inhibition at 0.1 µM [4] [%],inhibition at 0.1 µM [5] [%],inhibition at 0.1 µM [6] [%],inhibition at 0.003 µM ([7]; 3 nM) [%],inhibition at 0.03 µM ([7]; 30 nM) [%],inhibition at 0.1 µM [7] [%],inhibition at 1 µM [7] [%],SMILES,% Inhibition of Abl-T315I kinase ([7]; 3 nM) [%],% Inhibition of Abl-T315I kinase ([7]; 30 nM) [%],% Inhibition of cell proliferation in K562 cells ([8]; 10 nM) [%],% Inhibition of cell proliferation in K562 cells ([8]; 100 nM) [%],inhibition at 0.01 µM ([8]; 10 nM) [%],inhibition at 0.1 µM ([8]; 100 nM) [%]
–,–,–,–,–,–,0,55,–,–,"Cc1ccc(C(=O)NNC(=O)c2c(C)cccc2Cl)cc1C#Cc1cnc2ccccc2n1 [I.27, N′-(2-Chloro-6-methylbenzoyl)-4-methyl-3-[2-(quinoxalin-2-yl)ethynyl]benzohydrazide]",–,–,–,–,79.3,75.3
–,–,–,–,–,–,26,65,–,–,"Cc1ccc(C(=O)NNC(=O)c2c(F)cccc2C(F)(F)F)cc1C#Cc1cnc2ccccc2c1 [I.25, N′-[2-Fluoro-6-(trifluoromethyl)benzoyl]-4-methyl-3-[2-(3-quinolyl)ethynyl]benzohydrazide]",–,–,–,–,71.5,73
97,99,98,100,100,81,–,–,90,100,"Cc1ccc(C(=O)NNC(=O)c2c(C)cccc2I)cc1C#Cc1cnc2ccccc2c1 [I.4, N′-(2-Iodo-6-methylbenzoyl)-4-methyl-3-[2-(3-quinolyl)ethynyl]benzohydrazide]",–,–,–,–,102,100
